# Measured values taken from article PMC9911596 (Nature Communications, 2023).
# Biological target: T1, Vtc1/Vtc3/Vtc4 complex (VTC complex) (Saccharomyces cerevisiae, UniProt P47075+Q02725, Q02725:Y22F/Q02725:K26A/Q02725:K130A)
# T1 construct: full-length subunits co-expressed in Expi293F; Vtc1 C-terminal HA, Vtc3 N-terminal 3xFlag, Vtc4 C-terminal 2xStrep; detergent-purified; 3:1:1 pentamer; with Vacuolar transporter chaperone complex subunit 1
# T1 sequence (P47075 1-721): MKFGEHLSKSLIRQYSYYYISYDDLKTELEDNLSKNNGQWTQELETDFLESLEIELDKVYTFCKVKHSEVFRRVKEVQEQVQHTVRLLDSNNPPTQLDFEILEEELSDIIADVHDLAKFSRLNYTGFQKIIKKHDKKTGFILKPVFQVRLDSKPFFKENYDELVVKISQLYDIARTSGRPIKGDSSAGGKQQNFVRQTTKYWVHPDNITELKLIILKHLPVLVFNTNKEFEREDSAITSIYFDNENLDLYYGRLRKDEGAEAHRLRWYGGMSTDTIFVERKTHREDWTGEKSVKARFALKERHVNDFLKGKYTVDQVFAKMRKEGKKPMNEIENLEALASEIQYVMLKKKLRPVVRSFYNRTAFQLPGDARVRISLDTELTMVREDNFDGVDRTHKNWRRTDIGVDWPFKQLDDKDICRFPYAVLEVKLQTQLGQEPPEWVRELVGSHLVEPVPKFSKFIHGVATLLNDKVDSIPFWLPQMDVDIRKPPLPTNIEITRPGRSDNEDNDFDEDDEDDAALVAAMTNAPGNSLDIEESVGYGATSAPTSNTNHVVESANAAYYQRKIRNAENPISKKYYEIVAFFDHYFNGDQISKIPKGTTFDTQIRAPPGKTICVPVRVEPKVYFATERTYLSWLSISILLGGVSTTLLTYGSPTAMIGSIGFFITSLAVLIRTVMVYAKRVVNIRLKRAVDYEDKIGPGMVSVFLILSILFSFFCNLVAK
# T1 sequence (Q02725 1-835 Y22F/K26A/K130A): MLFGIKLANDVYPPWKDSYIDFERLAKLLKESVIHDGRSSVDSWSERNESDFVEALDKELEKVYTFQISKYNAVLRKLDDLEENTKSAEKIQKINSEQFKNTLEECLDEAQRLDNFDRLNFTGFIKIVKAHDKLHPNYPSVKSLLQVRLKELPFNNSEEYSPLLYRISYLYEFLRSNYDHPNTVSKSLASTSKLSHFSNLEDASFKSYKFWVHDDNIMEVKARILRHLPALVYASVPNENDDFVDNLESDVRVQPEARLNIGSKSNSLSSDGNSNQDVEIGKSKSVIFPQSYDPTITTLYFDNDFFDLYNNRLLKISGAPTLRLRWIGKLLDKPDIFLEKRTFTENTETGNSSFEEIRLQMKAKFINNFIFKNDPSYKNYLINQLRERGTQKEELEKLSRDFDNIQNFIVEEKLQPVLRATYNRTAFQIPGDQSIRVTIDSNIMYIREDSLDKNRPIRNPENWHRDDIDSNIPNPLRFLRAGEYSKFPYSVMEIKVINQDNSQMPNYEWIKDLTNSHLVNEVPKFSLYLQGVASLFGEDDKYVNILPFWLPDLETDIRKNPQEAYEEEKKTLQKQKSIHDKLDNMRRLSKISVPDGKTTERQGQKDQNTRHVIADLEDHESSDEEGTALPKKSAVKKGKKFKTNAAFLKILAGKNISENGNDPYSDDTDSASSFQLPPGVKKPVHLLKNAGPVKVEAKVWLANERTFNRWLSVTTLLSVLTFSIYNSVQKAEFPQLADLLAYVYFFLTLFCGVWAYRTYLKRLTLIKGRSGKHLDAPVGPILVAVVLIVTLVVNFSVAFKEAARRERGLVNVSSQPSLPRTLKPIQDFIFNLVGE
# T1 sequence (P40046 2-129 partner): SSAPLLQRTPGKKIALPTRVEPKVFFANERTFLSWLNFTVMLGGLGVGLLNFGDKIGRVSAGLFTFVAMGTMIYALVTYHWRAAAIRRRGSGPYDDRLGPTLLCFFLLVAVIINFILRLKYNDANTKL
# Assay: polyP synthesis, TBE-PAGE
# Type: biochemical
# Details: activator; 15 mM ATP, 10 mM MgCl2, 1 mM MnCl2, 0.5 mM pyrophosphate, 27 °C, 4 h; SPX PBC mutant
structure (smiles),measurement,value
O=P(O)(O)O[C@H]1[C@H](OP(=O)(O)O)[C@@H](OP(=O)(O)O)[C@H](OP(=O)(O)O)[C@@H](OP(=O)(O)O)[C@H]1OP(=O)(O)O [InsP6],"polyP synthesis, TBE-PAGE",residues had little effect on polyP synthesis
